# Laboratory results taken from patent publication US20230165252A1, “ACTIVE COMPOUND COMBINATIONS” (Bayer Aktiengesellschaft, priority 2020, published 2023).
# Several values for one entry are separate records, joined by “and”; a condition that tells them apart may be missing. Equal entries are not always repeated. Where two headings read alike, the source gives them in different places.
# Experiments:
# Format in all cases: cell-based
# Botrytis cinerea = assay: in vitro-Test with Botrytis cinerea (microtiter growth inhibition); details: for Efficacy: applied alone
# Method in brief: (§1)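 Steps: dry the compound (methanol with alkylaryl-polyglycol-ether) in each well; add potato dextrose liquid medium containing fungal spores or mycelium; record 620 nm extinction; incubate at 20° C. and 85% relative humidity; re-measure photometrically after 3-5 days. Efficacy in % against untreated wells.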
# Cercospora beticola = assay: in vitro-Test with Cercospora beticola (microtiter growth inhibition)
# Method in brief: as §1
# Cordana musae = assay: in vitro-Test with Cordana musae (microtiter growth inhibition)
# Experimental: (§2) The degree of efficacy expressed in % is denoted: 0% means an efficacy, which corresponds to that of the control, while an efficacy of 100% means that no disease is observed.
# (§3) If the actual fungicidal activity exceeds the calculated value, then the activity of the combination is super-additive, i.e. a synergistic effect exists. In this case, the efficacy, which was actually observed, must be greater than the value for the expected efficacy (E), that was calculated from the abovementioned formula.
# (§4) Example: In Vitro-Test with Fungal Microorganisms
# (§5) Wells of 96-well microtiter plates are filled with 10 μl of a preparation of test compound or compound combination in methanol+emulsifier alkylaryl-polyglycol-ether. Thereafter, the solvent is evaporated in a hood. At the next step, 100 μl of liquid potato dextrose medium is given into each well, that has been amended with an appropriate concentration of spores or mycelium suspension of the test fungus.
# (§6) With the aid of a photometer, the extinction in all wells is measured at the wavelength of 620 nm.
# (§7) The microtiter plates are incubated at 20° C. and 85% relative humidity. The inhibition of growth is determined again photometrically 3-5 days after the application. Efficacy is calculated in relation to the untreated control, 0% efficacy means fungal growth as high as in untreated control while 100% efficacy means no fungal growth is measured.
# Diaporthe citri = assay: in vitro-Test with Diaporthe citri (microtiter growth inhibition)
# Method in brief: as §1
# Fusarium culmorum = assay: in vitro-Test with Fusarium culmorum (microtiter growth inhibition)
# Experimental: as §2, §3, §4, §5, §6, §7
# [1] = tested on: Ustilago segetum var. avenae; assay: in vitro-Test with Ustilago segetum var. avenae (microtiter growth inhibition)
# Method in brief: as §1
# Alternaria alternate = assay: in vitro-Test with Alternaria alternate (microtiter growth inhibition)
# Method in brief: as §1
# Parastagonospora nodorum = assay: in vitro-Test with Parastagonospora nodorum (microtiter growth inhibition)
# Experimental: as §2, §3, §4, §5, §6, §7
# [2] = Fusarium culmorum, read-out: Efficacy
# [3] = compound alone, read-out: Efficacy %
# [4] = single compound, read-out: Efficacy %
# [5] = Diaporthe citri, read-out: Efficacy
# [6] = Fusarium culmorum, 0.04 ppm, read-out: Efficacy
# [7] = Fusarium culmorum, 1.0 ppm, read-out: Efficacy
structure (smiles),measurement,setting,value
"CCN(C)C=Nc1cc(C)c(Oc2ccccc2F)cc1Cl [Compound 15.064, N′-[2-chloro-4-(2-fluorophenoxy)-5-methylphenyl]-N-ethyl-N-methylimidoformamide]",inhibition of growth at 0.04 ppm,"Botrytis cinerea; Botrytis cinerea, single active at 0.04 ppm, read-out: Efficacy %",0%
same,inhibition of growth at 0.2 ppm,"Botrytis cinerea; Botrytis cinerea, single active at 0.2 ppm, read-out: Efficacy %",100%
same,inhibition of growth at 1 ppm,"Botrytis cinerea; Botrytis cinerea, single active at 1.0 ppm, read-out: Efficacy %",100%
same,inhibition of growth at 5 ppm,"Botrytis cinerea; Botrytis cinerea, single active at 5.0 ppm, read-out: Efficacy %",100%
same,Efficacy,Botrytis cinerea; 0.080 ppm,0%
same,Efficacy,Botrytis cinerea; 0.4 ppm,0%
same,Efficacy,Botrytis cinerea; 2 ppm,31%
same,inhibition of growth at 0.08 ppm,"Cercospora beticola; Cercospora beticola, alone, 0.08 ppm, read-out: Efficacy %",0%
same,inhibition of growth at 0.4 ppm,"Cercospora beticola; Cercospora beticola, alone, 0.4 ppm, read-out: Efficacy %",0%
same,inhibition of growth at 10 ppm,"Cercospora beticola; Cercospora beticola, alone, 10 ppm, read-out: Efficacy %",14%
same,inhibition of growth at 0.08 ppm,"Cordana musae; Neocordana musae, single substance, 0.080 ppm, read-out: Efficacy",0%
same,inhibition of growth at 0.4 ppm,"Cordana musae; Neocordana musae, single substance, 0.4 ppm, read-out: Efficacy",18%
same,inhibition of growth at 2 ppm,"Cordana musae; Neocordana musae, single substance, 2 ppm, read-out: Efficacy",14%
same,inhibition of growth at 10 ppm,"Cordana musae; Neocordana musae, single substance, 10 ppm, read-out: Efficacy",5%
same,inhibition of growth at 0.08 ppm,"Diaporthe citri; Diaporthe citri, applied alone, 0.080 ppm, read-out: Efficacy",11%
same,inhibition of growth at 0.4 ppm,"Diaporthe citri; Diaporthe citri, applied alone, 0.4 ppm, read-out: Efficacy",2%
same,inhibition of growth at 2 ppm,"Diaporthe citri; Diaporthe citri, applied alone, 2 ppm, read-out: Efficacy",5%
same,inhibition of growth at 0.4 ppm,Fusarium culmorum; [2],0%
same,inhibition of growth at 2 ppm,Fusarium culmorum; [2],1%
same,inhibition of growth at 10 ppm,Fusarium culmorum; [2],9%
same,inhibition of growth at 0.4 ppm,[1]; [3],0%
same,inhibition of growth at 2 ppm,[1]; [3],41%
same,inhibition of growth at 10 ppm,[1]; [3],100%
same,inhibition of growth at 0.08 ppm,"[1]; single compound, 0.08 ppm, read-out: Efficacy %",1%
same,inhibition of growth at 0.4 ppm,[1]; [4],2%
same,inhibition of growth at 2 ppm,[1]; [4],68%
same,inhibition of growth at 10 ppm,[1]; [4],100%
N#Cc1c[nH]cc1-c1cccc2c1OC(F)(F)O2 [fludioxonil],inhibition of growth at 0.04 ppm,"Alternaria alternate; Alternaria, read-out: Efficacy %, 0.04 ppm, alone",0%
same,inhibition of growth at 0.2 ppm,"Alternaria alternate; Alternaria, read-out: Efficacy %, 0.2 ppm, alone",0%
same,inhibition of growth at 1 ppm,"Alternaria alternate; Alternaria, read-out: Efficacy %, 1.0 ppm, alone",87%
same,inhibition of growth at 5 ppm,"Alternaria alternate; Alternaria, read-out: Efficacy %, 5.0 ppm, alone",100%
same,inhibition of growth at 0.04 ppm,"Alternaria alternate; Alternaria, read-out: Efficacy, applied alone, 0.04 ppm",0%
same,inhibition of growth at 0.2 ppm,"Alternaria alternate; Alternaria, read-out: Efficacy, applied alone, 0.2 ppm",0%
same,inhibition of growth at 1 ppm,"Alternaria alternate; Alternaria, read-out: Efficacy, applied alone, 1.0 ppm",96%
same,inhibition of growth at 5 ppm,"Alternaria alternate; Alternaria, read-out: Efficacy, applied alone, 5.0 ppm",100%
same,Efficacy,Botrytis cinerea; 0.04 ppm,12%
same,Efficacy,Botrytis cinerea; 0.2 ppm,99%
same,Efficacy,Botrytis cinerea; 1.0 ppm,100%
same,Efficacy,Botrytis cinerea; 5.0 ppm,100%
same,inhibition of growth at 5 ppm,"Cercospora beticola; Cercospora beticola, read-out: Efficacy %, alone, 5.0 ppm",95%
same,inhibition of growth at 1 ppm,"Cordana musae; Neocordana musae, read-out: Efficacy, single substance, 1.0 ppm",20%
same,inhibition of growth at 5 ppm,"Cordana musae; Neocordana musae, read-out: Efficacy, single substance, 5.0 ppm",44%
same,inhibition of growth at 0.04 ppm,Diaporthe citri; [5],12%
same,inhibition of growth at 0.2 ppm,Diaporthe citri; [5],0%
same,inhibition of growth at 1 ppm,Diaporthe citri; [5],45%
same,inhibition of growth at 5 ppm,Diaporthe citri; [5],10%
same,inhibition of growth at 0.04 ppm,Fusarium culmorum; [6],0%
same,inhibition of growth at 0.08 ppm,"Fusarium culmorum; Fusarium culmorum, 0.08 ppm, read-out: Efficacy",1%
same,inhibition of growth at 0.2 ppm,"Fusarium culmorum; Fusarium culmorum, 0.2 ppm, read-out: Efficacy",0%
same,inhibition of growth at 0.4 ppm,Fusarium culmorum; [2],1%
same,inhibition of growth at 1 ppm,Fusarium culmorum; [7],91%
same,inhibition of growth at 2 ppm,Fusarium culmorum; [2],2%
same,inhibition of growth at 5 ppm,"Fusarium culmorum; Fusarium culmorum, 5.0 ppm, read-out: Efficacy",100%
same,inhibition of growth at 10 ppm,Fusarium culmorum; [2],11%
same,inhibition of growth at 0.04 ppm,[1]; read-out: Efficacy %,10%
same,inhibition of growth at 0.2 ppm,[1]; read-out: Efficacy %,60%
same,inhibition of growth at 1 ppm,[1]; read-out: Efficacy %,100%
same,inhibition of growth at 5 ppm,[1]; read-out: Efficacy %,100%
CC(C)c1ccc(Cl)cc1CN(C(=O)c1c(C(F)F)nn(C)c1F)C1CC1 [isoflucypram],Efficacy %,"Alternaria alternate; 0.008 ppm, alone",44% and 41%
same,Efficacy %,"Alternaria alternate; 0.04 ppm, alone",69% and 76%
same,Efficacy %,"Alternaria alternate; 0.2 ppm, alone",85% and 81%
same,Efficacy %,"Alternaria alternate; 1.0 ppm, alone",74%
same,Efficacy,"Alternaria alternate; applied alone, 0.008 ppm",53%
same,Efficacy,"Alternaria alternate; applied alone, 0.04 ppm",71%
same,Efficacy,"Alternaria alternate; applied alone, 0.2 ppm",73%
same,Efficacy %,"Cercospora beticola; alone, 0.008 ppm",11%
same,Efficacy %,"Cercospora beticola; alone, 0.04 ppm",16%
same,Efficacy %,"Cercospora beticola; alone, 1.0 ppm",35% and 39%
same,Efficacy,"Cordana musae; single substance, 0.008 ppm",0%
same,Efficacy,"Cordana musae; single substance, 0.04 ppm",10% and 12%
same,Efficacy,"Cordana musae; single substance, 0.2 ppm",0%
same,Efficacy,"Cordana musae; single substance, 1.0 ppm",18% and 8%
same,Efficacy,"Diaporthe citri; applied alone, 0.008 ppm",0%
same,Efficacy,"Diaporthe citri; applied alone, 0.04 ppm",0%
same,Efficacy,"Diaporthe citri; applied alone, 0.2 ppm",0%
same,Efficacy,"Diaporthe citri; applied alone, 1.0 ppm",49% and 41%
same,Efficacy,Fusarium culmorum; 0.008 ppm,0%
same,Efficacy,Fusarium culmorum; 0.04 ppm,0%
same,Efficacy,Fusarium culmorum; 0.2 ppm,0%
same,Efficacy,Fusarium culmorum; 1.0 ppm,0%
same,Efficacy %,"[1]; single compound, 0.008 ppm",0%
same,Efficacy %,"[1]; single compound, 0.04 ppm",45%
same,Efficacy %,"[1]; single compound, 0.2 ppm",100%
same,Efficacy %,"[1]; single compound, 1.0 ppm",100%
CON=C(C(=O)OC)c1ccccc1CON=C(C)c1cccc(C(F)(F)F)c1 [trifloxystrobin],inhibition of growth at 0.008 ppm,"Alternaria alternate; Alternaria, 0.008 ppm, alone, read-out: Efficacy %",56%
same,inhibition of growth at 0.04 ppm,"Alternaria alternate; Alternaria, 0.04 ppm, alone, read-out: Efficacy %",84%
same,inhibition of growth at 0.2 ppm,"Alternaria alternate; Alternaria, 0.2 ppm, alone, read-out: Efficacy %",90%
same,inhibition of growth at 1 ppm,"Alternaria alternate; Alternaria, 1.0 ppm, alone, read-out: Efficacy %",98%
same,inhibition of growth at 0.04 ppm,"Alternaria alternate; Alternaria, applied alone, 0.04 ppm, read-out: Efficacy",82%
same,inhibition of growth at 0.2 ppm,"Alternaria alternate; Alternaria, applied alone, 0.2 ppm, read-out: Efficacy",87%
same,Efficacy,"Alternaria alternate; applied alone, 0.008 ppm",51%
same,inhibition of growth at 0.008 ppm,"Cercospora beticola; Cercospora beticola, alone, 0.008 ppm, read-out: Efficacy %",98%
same,inhibition of growth at 0.2 ppm,"Cercospora beticola; Cercospora beticola, alone, 0.2 ppm, read-out: Efficacy %",95%
same,inhibition of growth at 0.008 ppm,"Cordana musae; Neocordana musae, single substance, 0.008 ppm, read-out: Efficacy",29%
same,inhibition of growth at 0.2 ppm,"Cordana musae; Neocordana musae, single substance, 0.2 ppm, read-out: Efficacy",66%
same,inhibition of growth at 0.008 ppm,"Diaporthe citri; Diaporthe citri, applied alone, 0.008 ppm, read-out: Efficacy",82%
same,inhibition of growth at 0.04 ppm,"Diaporthe citri; Diaporthe citri, applied alone, 0.04 ppm, read-out: Efficacy",94%
same,inhibition of growth at 0.2 ppm,"Diaporthe citri; Diaporthe citri, applied alone, 0.2 ppm, read-out: Efficacy",97%
same,inhibition of growth at 1 ppm,"Diaporthe citri; Diaporthe citri, applied alone, 1.0 ppm, read-out: Efficacy",98%
same,inhibition of growth at 0.008 ppm,"Fusarium culmorum; Fusarium culmorum, 0.008 ppm, read-out: Efficacy",0%
same,inhibition of growth at 0.04 ppm,Fusarium culmorum; [6],0%
same,inhibition of growth at 1 ppm,Fusarium culmorum; [7],11%
same,Efficacy,Parastagonospora nodorum; 0.008 ppm,38%
same,Efficacy,Parastagonospora nodorum; 0.04 ppm,63%
same,Efficacy,Parastagonospora nodorum; 0.2 ppm,78%
same,Efficacy,Parastagonospora nodorum; 1.0 ppm,79%
same,inhibition of growth at 0.008 ppm,"[1]; single compound, 0.008 ppm, read-out: Efficacy %",16%
same,inhibition of growth at 0.04 ppm,"[1]; single compound, 0.04 ppm, read-out: Efficacy %",40%
same,inhibition of growth at 0.2 ppm,"[1]; single compound, 0.2 ppm, read-out: Efficacy %",53%
